The source of these data is patent US7192607B2, “Formulations for the prevention or the treatment of diseases affecting mucosae or skin, or for pregnancy prevention, and an applicator for the delivery of topical formulations into mucosal cavities” (Infectio Recherche Inc, priority 2002, dated 2007).

The test system of one assay is HSV-2 (22). The assay is described as follows: Infectivity of HSV-2 (22) pretreated with SLS on Vero cells (PFU). Format: cell-based, Herpes simplex virus type-2. Here is the method:
(§1) The effect of pretreating different strains of herpes viruses with SLS or DS on their viral infectivities to susceptible cells has been evaluated. In brief, cells were seeded in 24 well-plates (Costar, Montreal, QC, Canada). Prior to infection, the virus was either suspended in culture medium or phosphate buffered saline (PBS), or incubated with different concentrations of SLS in PBS for 1 h at 37° C. At confluency, cells were incubated with viral suspensions by centrifuging the plates (750× g for 45 min at 20° C.) to allow virus adsorption. Virus was removed and cell sheets were then overlaid with 0.5 ml of 0.6% agarose Seaplaque (Marine Colloids, Rockland, Md.) prepared in appropriate culture medium. The plates were incubated for 2 days at 37° C. Cells were then fixed with 10% formaldehyde in PBS for 20 min, washed with deionized water and stained with 0.05% methylene blue. Viral infectivity was evaluated via the determination of Plaque Forming Units (PFU).

The subject of another assay is HSV-2 (333). As to the kind of experiment: Infectivity of HSV-2 (333) pretreated with SLS on Vero cells (PFU). In kind it is cell-based, Herpes simplex virus type-2. Here is the method: as §1
The next assay relates to HSV-2. Conditions: Howett et al., 1999; cited from earlier work.
Another assay relates to HSV-2 (strain 333). As to the kind of experiment: Murine intravaginal infection model, gel formulations applied prior to infection. In kind it is in vivo, Balb/c mice. The following applies: 2.5% SLS alone intravaginally 5 min prior to infection. Here is the method:
The efficacy of gel formulations to prevent the genital transmission of HSV-2 has been evaluated in a murine intravaginal infection model. In brief, female Balb/c mice aged 4 weeks were used for this study. To increase susceptibility of mice to herpes, 2.5 mg of progesterone (Depo-Provera) was administered subcutaneously to each mouse 7 days prior to and one day prior to inoculation with HSV-2. Anesthetized mice were inoculated with 5 μl of 2.4×10^7 pfu/ml of HSV-2 (strain 333) after swabbing the vagina with a calcium alginate thin tipped swab. To determine the efficacy of the gel formulations to block herpes infection, 15 μl of the gel was delivered with a pipette tip into the vagina a few minutes prior to the inoculation. The pipette tip was moved in and out four times to simulate stirring action of sexual intercourse while being cautious not to cause any bleeding.

[1] abbreviates: virus pretreated with 6.25 μM SLS for 1 hour at 37° C.
Where [2] appears, read: virus pretreated with 12.5 μM SLS for 1 hour at 37° C.
Where [3] appears, read: virus pretreated with 25 μM SLS for 1 hour at 37° C.
Setting [4] is: virus pretreated with 50 μM SLS for 1 hour at 37° C.

SMILES strings stand for the structures.

Turning to `CCCCCCCCCCCCOS(=O)(=O)[O-].[Na+]` [SLS, Sodium lauryl sulfate], the “PFU (% of control) for HSV-2 (22)” value is given as 128.0 ± 18.5 % of control with HSV-2 (22) (setting [1]), 103.4 ± 14.9 % of control in the assay on HSV-2 (22) (setting [2]), 63.8 ± 11.9 % of control in the assay on HSV-2 (22) (setting [3]) and 0 % of control in the assay with HSV-2 (22) (setting [4]). The “PFU (% of control) for HSV-2 (333)” value in the assay with HSV-2 (333) (setting [1]) is listed as 102.9 ± 23.5 % of control; in the assay with HSV-2 (333) (setting [2]), 115.4 ± 17.0 % of control; in the assay with HSV-2 (333) (setting [3]), 72.9 ± 9.1 % of control; in the assay on HSV-2 (333) (setting [4]), 0 % of control. The “inactivation of HSV-2” value in the assay on HSV-2 is “potent inactivator”. For the same compound, the “mice that survived the infection” value in the assay with HSV-2 (strain 333) is recorded as “all”. Moreover, the signs of illness result in the assay with HSV-2 (strain 333) (up to 16 days post-infection) is given as “did not demonstrate any sign of illness”.
